Biological target: DNA-(apurinic or apyrimidinic site) endonuclease (Homo sapiens, UniProt P27695)
Assay: Inhibition of APE-1 (unknown origin) using double-stranded AP-site containing DNA as substrate after 30 mins by fluorescence assay

DNA-(apurinic or apyrimidinic site) endonuclease, sequence (P27695 whole entry): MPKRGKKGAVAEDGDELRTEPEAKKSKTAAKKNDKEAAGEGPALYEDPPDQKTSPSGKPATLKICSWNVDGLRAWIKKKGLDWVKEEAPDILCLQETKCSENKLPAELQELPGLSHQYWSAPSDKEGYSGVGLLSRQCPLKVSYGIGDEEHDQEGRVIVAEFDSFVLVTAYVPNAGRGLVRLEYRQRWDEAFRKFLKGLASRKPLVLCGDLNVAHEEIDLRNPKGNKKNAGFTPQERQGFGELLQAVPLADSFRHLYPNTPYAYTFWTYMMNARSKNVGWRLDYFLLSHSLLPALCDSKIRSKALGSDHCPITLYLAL

- IC50: > 200 µM
Compound: Cn1nc(-c2ccccc2)c(O)c2c(=O)[nH]c(=N)nc1-2
